Laboratory results as given in ChEMBL document CHEMBL1129756, “Conformationally restricted TRH analogs: a probe for the pyroglutamate region” (J Med Chem, 1996).

Key:
[1] = target: T1, Thyrotropin-releasing hormone receptor (Mus musculus, UniProt P21761); assay: Binding affinity against TRH-R receptor in AtT-20 mouse pituitary tumor cells
T1 sequence (P21761 whole entry): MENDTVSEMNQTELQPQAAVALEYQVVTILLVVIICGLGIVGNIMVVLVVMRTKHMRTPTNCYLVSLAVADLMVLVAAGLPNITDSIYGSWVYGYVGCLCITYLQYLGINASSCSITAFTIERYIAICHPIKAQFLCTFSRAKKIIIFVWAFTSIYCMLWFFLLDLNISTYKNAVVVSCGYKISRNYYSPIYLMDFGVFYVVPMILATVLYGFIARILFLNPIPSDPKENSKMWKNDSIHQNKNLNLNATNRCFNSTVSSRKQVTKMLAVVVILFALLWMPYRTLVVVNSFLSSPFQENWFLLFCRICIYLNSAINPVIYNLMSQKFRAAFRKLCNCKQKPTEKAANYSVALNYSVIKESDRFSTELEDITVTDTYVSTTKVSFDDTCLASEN

[2] = target: T1, Thyrotropin-releasing hormone receptor; assay: Effective concentration required to activate TRH-R receptor in AtT-20 mouse pituitary tumor cells

Ki [1]	EC50 [2]	SMILES
1.2 nM		Cn1cnc(C[C@H](NC(=O)[C@@H]2CCC(=O)N2)C(=O)N2CCC[C@H]2C(N)=O)c1
4400 nM	290 nM	NC(=O)[C@@H]1CCCN1C(=O)[C@H](Cc1ccccc1)N1CC[C@]2(CCC(=O)N2)C1=O
	0.68 nM	NC(=O)[C@@H]1CCCN1C(=O)[C@H](Cc1cnc[nH]1)NC(=O)[C@@H]1CCC(=O)N1 [PROTIRELIN]
